Laboratory results taken from patent US8802597B2, “Herbicidal pyrimidines” (E I du Pont de Nemours and Company, priority 2003, dated 2014).
Like-named read-outs stand apart in the source and are kept apart here.

Tests used:
Experiment in all cases: Test C pre/postemergence
Assay type in all cases: in vivo
[1] = tested on: Surinam grass (Brachiaria decumbens); settings: Urochloa decumbens; for pest or weed control at 16 g/ha: 16 g ai/ha; for pest or weed control at 31 g/ha: 31 g ai/ha; for pest or weed control at 62 g/ha: 62 g ai/ha
Outline: (§1)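 Seeds sown and sprayed preemergence with test compound in non-phytotoxic solvent containing surfactant; postemergence sprays, same formulation, went onto plants 2 to 18 cm tall (1- to 4-leaf stage). Plants held in greenhouse 12 to 14 days, then visually rated against untreated controls on a 0–100 scale (0 no effect, 100 complete control).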

[2] = tested on: bermudagrass (Cynodon dactylon); settings: Cynodon dactylon; for pest or weed control at 16 g/ha: 16 g ai/ha; for pest or weed control at 31 g/ha: 31 g ai/ha; for pest or weed control at 62 g/ha: 62 g ai/ha; for pest or weed control at 125 g/ha: 125 g ai/ha
Outline: as §1

[3] = tested on: cocklebur (Xanthium strumarium); settings: Xanthium strumarium; for pest or weed control at 16 g/ha: 16 g ai/ha; for pest or weed control at 31 g/ha: 31 g ai/ha; for pest or weed control at 62 g/ha: 62 g ai/ha; for pest or weed control at 125 g/ha: 125 g ai/ha
Outline: as §1

[4] = tested on: common (oilseed) sunflower (Helianthus annuus); settings: Helianthus annuus, pre-emergence, Preemergence, scale 0 to 100, 0 no effect, 100 complete control, read-out: Plant response rating, Sunflower
Outline: as §1

[5] = tested on: common ragweed (Ambrosia elatior); settings: Ambrosia artemisiifolia; for pest or weed control at 16 g/ha: 16 g ai/ha; for pest or weed control at 31 g/ha: 31 g ai/ha; for pest or weed control at 62 g/ha: 62 g ai/ha
Outline: as §1

corn (Zea mays) = settings: Zea mays; for Corn plant response rating (crop injury, 0 = no effect, 100 = complete kill) at 16 g/ha: 16 g ai/ha; for Corn plant response rating (crop injury, 0 = no effect, 100 = complete kill) at 31 g/ha: 31 g ai/ha; for Corn plant response rating (crop injury, 0 = no effect, 100 = complete kill) at 62 g/ha: 62 g ai/ha; for Corn plant response rating (crop injury, 0 = no effect, 100 = complete kill) at 125 g/ha: 125 g ai/ha
Outline: as §1

[6] = tested on: eastern black nightshade (Solanum ptycanthum); settings: Solanum, pre-emergence, Preemergence, scale 0 to 100, 0 no effect, 100 complete control, read-out: Plant response rating, Nightshade
Outline: as §1

[7] = tested on: johnsongrass (Sorghum halepense); settings: Sorghum halepense; for pest or weed control at 16 g/ha: 16 g ai/ha; for pest or weed control at 31 g/ha: 31 g ai/ha; for pest or weed control at 62 g/ha: 62 g ai/ha; for pest or weed control at 125 g/ha: 125 g ai/ha
Outline: as §1

kochia (Kochia scoparia) = settings: Bassia scoparia; for pest or weed control at 16 g/ha: 16 g ai/ha; for pest or weed control at 31 g/ha: 31 g ai/ha; for pest or weed control at 62 g/ha: 62 g ai/ha; for pest or weed control at 125 g/ha: 125 g ai/ha
Outline: as §1

[8] = tested on: morningglory (Ipomoea coccinea); settings: Ipomoea; for pest or weed control at 16 g/ha: 16 g ai/ha; for pest or weed control at 31 g/ha: 31 g ai/ha; for pest or weed control at 62 g/ha: 62 g ai/ha; for pest or weed control at 125 g/ha: 125 g ai/ha
Outline: as §1

[9] = tested on: pigweed (Amaranthus retroflexus); settings: Amaranthus retroflexus; for pest or weed control at 16 g/ha: 16 g ai/ha; for pest or weed control at 31 g/ha: 31 g ai/ha; for pest or weed control at 62 g/ha: 62 g ai/ha
Outline: as §1

[10] = tested on: woolly cupgrass (Eriochloa villosa); settings: Eriochloa villosa; for pest or weed control at 16 g/ha: 16 g ai/ha; for pest or weed control at 31 g/ha: 31 g ai/ha; for pest or weed control at 62 g/ha: 62 g ai/ha; for pest or weed control at 125 g/ha: 125 g ai/ha
Outline: as §1

[11] = post-emergence, Postemergence, read-out: Plant response rating (scale of 0 to 100), Surinam Grass
[12] = pre-emergence, Preemergence, scale 0 to 100, 0 no effect, 100 complete control, read-out: Plant response rating, Surinam Grass
[13] = post-emergence, Postemergence, read-out: Plant response rating (scale of 0 to 100), Bermudagrass
[14] = post-emergence, Postemergence, scale 0 to 100 (0 no effect, 100 complete control), read-out: Bermudagrass plant response rating
[15] = pre-emergence, Preemergence, scale 0 to 100, 0 no effect, 100 complete control, read-out: Plant response rating, Bermudagrass
[16] = post-emergence, Postemergence, read-out: Plant response rating (scale of 0 to 100), Cocklebur
[17] = pre-emergence, Preemergence, scale 0 to 100, 0 no effect, 100 complete control, read-out: Plant response rating, Cocklebur
[18] = post-emergence, Postemergence, read-out: Plant response rating (scale of 0 to 100), Ragweed
[19] = pre-emergence, Preemergence, scale 0 to 100, 0 no effect, 100 complete control, read-out: Plant response rating, Ragweed
[20] = post-emergence, Postemergence, read-out: Plant response rating (scale of 0 to 100), Corn
[21] = pre-emergence, Preemergence, scale 0 to 100, 0 no effect, 100 complete control, read-out: Plant response rating, Corn
[22] = post-emergence, Postemergence, read-out: Plant response rating (scale of 0 to 100), Johnsongrass
[23] = pre-emergence, Preemergence, scale 0 to 100, 0 no effect, 100 complete control, read-out: Plant response rating, Johnsongrass
[24] = post-emergence, Postemergence, read-out: Plant response rating (scale of 0 to 100), Kochia
[25] = pre-emergence, Preemergence, scale 0 to 100, 0 no effect, 100 complete control, read-out: Plant response rating, Kochia
[26] = post-emergence, Postemergence, read-out: Plant response rating (scale of 0 to 100), Morningglory
[27] = pre-emergence, Preemergence, scale 0 to 100, 0 no effect, 100 complete control, read-out: Plant response rating, Morningglory
[28] = post-emergence, Postemergence, read-out: Plant response rating (scale of 0 to 100), Pigweed
[29] = pre-emergence, Preemergence, scale 0 to 100, 0 no effect, 100 complete control, read-out: Plant response rating, Pigweed
[30] = post-emergence, Postemergence, read-out: Plant response rating (scale of 0 to 100), Cupgrass, Woolly
[31] = pre-emergence, Preemergence, scale 0 to 100, 0 no effect, 100 complete control, read-out: Plant response rating, Cupgrass, Woolly

Nc1nc(-c2ccc(Cl)cc2)nc(C(=O)O)c1Cl [Compound 65, 6-amino-5-chloro-2-(4-chlorophenyl)-4-pyrimidinecarboxylic acid]
pest or weed control at 125 g/ha ([1]; post-emergence, Postemergence, 125 g ai/ha, scale 0 to 100 (0 no effect, 100 complete control), read-out: Surinam Grass plant response rating): 80%
pest or weed control at 16 g/ha [1, 11]: 60%
pest or weed control at 31 g/ha [1, 11]: 80%
pest or weed control at 62 g/ha [1, 11]: 80%
pest or weed control at 16 g/ha [1, 12]: 0%
pest or weed control at 31 g/ha [1, 12]: 40%
pest or weed control at 62 g/ha [1, 12]: 80%
pest or weed control at 16 g/ha [2, 13]: 60%
pest or weed control at 31 g/ha [2, 13]: 60%
pest or weed control at 62 g/ha [2, 14]: 70%
pest or weed control at 125 g/ha [2, 14]: 70%
pest or weed control at 16 g/ha [2, 15]: 0%
pest or weed control at 31 g/ha [2, 15]: 50%
pest or weed control at 62 g/ha [2, 15]: 70%
pest or weed control at 125 g/ha ([2]; pre-emergence, Preemergence, scale 0 to 100, read-out: Plant response rating, Bermudagrass): 80%
pest or weed control at 16 g/ha [3, 16]: 90%
pest or weed control at 31 g/ha [3, 16]: 100%
pest or weed control at 62 g/ha [3, 16]: 100%
pest or weed control at 125 g/ha ([3]; post-emergence, Postemergence, scale 0 to 100 (0 no effect, 100 complete control), read-out: Cocklebur plant response rating): 100%
pest or weed control at 16 g/ha [3, 17]: 0%
pest or weed control at 31 g/ha [3, 17]: 30%
pest or weed control at 62 g/ha [3, 17]: 50%
pest or weed control at 125 g/ha ([3]; pre-emergence, Preemergence, scale 0 to 100, read-out: Plant response rating, Cocklebur): 90%
pest or weed control at 16 g/ha ([4]; 16 g ai/ha): 40%
pest or weed control at 31 g/ha ([4]; 31 g ai/ha): 70%
pest or weed control at 62 g/ha ([4]; 62 g ai/ha): 95%
pest or weed control at 16 g/ha [5, 18]: 80%
pest or weed control at 31 g/ha [5, 18]: 90%
pest or weed control at 62 g/ha [5, 18]: 95%
pest or weed control at 125 g/ha ([5]; post-emergence, Postemergence, 125 g ai/ha, scale 0 to 100 (0 no effect, 100 complete control), read-out: Ragweed plant response rating): 95%
pest or weed control at 16 g/ha [5, 19]: 85%
pest or weed control at 31 g/ha [5, 19]: 85%
pest or weed control at 62 g/ha [5, 19]: 90%
Corn plant response rating (crop injury, 0 = no effect, 100 = complete kill) at 16 g/ha (corn (Zea mays); [20]): 5%
Corn plant response rating (crop injury, 0 = no effect, 100 = complete kill) at 31 g/ha (corn (Zea mays); [20]): 90%
Corn plant response rating (crop injury, 0 = no effect, 100 = complete kill) at 62 g/ha (corn (Zea mays); [20]): 90%
Corn plant response rating (crop injury, 0 = no effect, 100 = complete kill) at 125 g/ha (corn (Zea mays); post-emergence, Postemergence, scale 0 to 100 (0 no effect, 100 complete control), read-out: Corn plant response rating): 90%
Corn plant response rating (crop injury, 0 = no effect, 100 = complete kill) at 16 g/ha (corn (Zea mays); [21]): 0%
Corn plant response rating (crop injury, 0 = no effect, 100 = complete kill) at 31 g/ha (corn (Zea mays); [21]): 0%
Corn plant response rating (crop injury, 0 = no effect, 100 = complete kill) at 62 g/ha (corn (Zea mays); [21]): 0%
Corn plant response rating (crop injury, 0 = no effect, 100 = complete kill) at 125 g/ha (corn (Zea mays); pre-emergence, Preemergence, scale 0 to 100, read-out: Plant response rating, Corn): 30%
pest or weed control at 16 g/ha ([6]; 16 g ai/ha): 0%
pest or weed control at 31 g/ha ([6]; 31 g ai/ha): 0%
pest or weed control at 16 g/ha [7, 22]: 45%
pest or weed control at 31 g/ha [7, 22]: 60%
pest or weed control at 62 g/ha [7, 22]: 85%
pest or weed control at 125 g/ha ([7]; post-emergence, Postemergence, scale 0 to 100 (0 no effect, 100 complete control), read-out: Johnsongrass plant response rating): 85%
pest or weed control at 16 g/ha [7, 23]: 0%
pest or weed control at 31 g/ha [7, 23]: 50%
pest or weed control at 62 g/ha [7, 23]: 60%
pest or weed control at 125 g/ha ([7]; pre-emergence, Preemergence, scale 0 to 100, read-out: Plant response rating, Johnsongrass): 70%
pest or weed control at 16 g/ha (kochia (Kochia scoparia); [24]): 85%
pest or weed control at 31 g/ha (kochia (Kochia scoparia); [24]): 85%
pest or weed control at 62 g/ha (kochia (Kochia scoparia); [24]): 85%
pest or weed control at 125 g/ha (kochia (Kochia scoparia); post-emergence, Postemergence, scale 0 to 100 (0 no effect, 100 complete control), read-out: Kochia plant response rating): 90%
pest or weed control at 16 g/ha (kochia (Kochia scoparia); [25]): 0%
pest or weed control at 31 g/ha (kochia (Kochia scoparia); [25]): 0%
pest or weed control at 62 g/ha (kochia (Kochia scoparia); [25]): 50%
pest or weed control at 125 g/ha (kochia (Kochia scoparia); pre-emergence, Preemergence, scale 0 to 100, read-out: Plant response rating, Kochia): 70%
pest or weed control at 16 g/ha [8, 26]: 90%
pest or weed control at 31 g/ha [8, 26]: 90%
pest or weed control at 62 g/ha [8, 26]: 90%
pest or weed control at 125 g/ha ([8]; post-emergence, Postemergence, scale 0 to 100 (0 no effect, 100 complete control), read-out: Morningglory plant response rating): 95%
pest or weed control at 16 g/ha [8, 27]: 0%
pest or weed control at 31 g/ha [8, 27]: 0%
pest or weed control at 62 g/ha [8, 27]: 20%
pest or weed control at 125 g/ha ([8]; pre-emergence, Preemergence, scale 0 to 100, read-out: Plant response rating, Morningglory): 100%
pest or weed control at 16 g/ha [9, 28]: 90%
pest or weed control at 31 g/ha [9, 28]: 90%
pest or weed control at 62 g/ha [9, 28]: 100%
pest or weed control at 125 g/ha ([9]; post-emergence, Postemergence, 125 g ai/ha, scale 0 to 100 (0 no effect, 100 complete control), read-out: Pigweed plant response rating): 100%
pest or weed control at 16 g/ha [9, 29]: 40%
pest or weed control at 31 g/ha [9, 29]: 80%
pest or weed control at 62 g/ha [9, 29]: 80%
pest or weed control at 16 g/ha [10, 30]: 60%
pest or weed control at 31 g/ha [10, 30]: 80%
pest or weed control at 62 g/ha [10, 30]: 85%
pest or weed control at 125 g/ha ([10]; post-emergence, Postemergence, scale 0 to 100 (0 no effect, 100 complete control), read-out: Cupgrass, Woolly plant response rating): 85%
pest or weed control at 16 g/ha [10, 31]: 0%
pest or weed control at 31 g/ha [10, 31]: 0%
pest or weed control at 62 g/ha [10, 31]: 5%
pest or weed control at 125 g/ha ([10]; pre-emergence, Preemergence, scale 0 to 100, read-out: Plant response rating, Cupgrass, Woolly): 70%
